Data from patent US9365614B2, “IAP BIR domain binding compounds” (priority 2006, dated 2016).

The molecules below were run on SKOV-3 cells (assay: Survival MTT assay, SKOV-3). Conditions: Homo sapiens, SK-OV-3, 72 h, read-out: SKOV-3 EC50.
Assay type: cell-based
Method: One day prior the treatment with compound, 2000 to 4000 cells per well were plated in a tissue culture treated 96 well format dish with 100 ul of media and incubated at 37° C., 5% CO2. On the day of compound treatment, compounds were diluted with cell culture media to a working stock concentration of 2×. 100 uL of diluted compound were then added to each well. The treated plate was incubated for 72 h at 37° C., 5% CO2. Upon incubation, the cell viability was assessed as followed 20 uL of MTT reagent at 5 mg/ml were added per well to cell plate. The plate was incubated for 2 h at 37° C. in presence of 5% CO2. The supernatant was then removed from the plate and 100 uL of isopropanol were added. The absorbance was measured in a TECAN spectrophotometer at 570 nm. The percentage of viability was expressed in percentage of the signal obtained with non treated cells.
In the case of `CN[C@@H](C)C(=O)N[C@H](C(=O)N1C[C@@H](NC(=O)c2cncc(C(=O)N[C@H]3C[C@@H](C(=O)N[C@@H]4CCCc5ccccc54)N(C(=O)[C@@H](NC(=O)[C@H](C)NC)C(C)(C)C)C3)c2)C[C@H]1C(=O)N[C@@H]1CCCc2ccccc21)C(C)(C)C` [Compound 41], the EC50 is reported as < 0.05 µM.
In the case of `CN[C@@H](C)C(=O)N[C@H](C(=O)N1C[C@@H](NC(=O)c2cccc(C(=O)N[C@H]3C[C@@H](C(=O)N[C@@H]4CCCc5ccccc54)N(C(=O)[C@@H](NC(=O)[C@H](C)NC)C(C)(C)C)C3)n2)C[C@H]1C(=O)N[C@@H]1CCCc2ccccc21)C(C)(C)C` [Compound 43], the EC50 is reported as < 0.25 µM.
`CN[C@@H](C)C(=O)N[C@H](C(=O)N1C[C@@H](NC(=O)Nc2ccc(NC(=O)N[C@H]3C[C@@H](C(=O)N[C@@H]4CCCc5ccccc54)N(C(=O)[C@@H](NC(=O)[C@H](C)NC)C(C)(C)C)C3)cc2)C[C@H]1C(=O)N[C@@H]1CCCc2ccccc21)C(C)(C)C` [Compound 44] was tested, and the EC50 was < 0.05 µM.
For `CN[C@@H](C)C(=O)N[C@H](C(=O)N1C[C@@H](NC(=O)c2ccc(C(=O)N[C@H]3C[C@@H](C(=O)NCc4ccccc4)N(C(=O)[C@@H](NC(=O)[C@H](C)NC)C(C)(C)C)C3)cc2)C[C@H]1C(=O)NCc1ccccc1)C(C)(C)C` [Compound 46], the EC50 was < 0.25 µM.
`CN[C@@H](C)C(=O)N[C@H](C(=O)N1C[C@@H](NC(=O)c2ccc(C(=O)N[C@H]3C[C@@H](C(=O)NC4c5ccccc5-c5ccccc54)N(C(=O)[C@@H](NC(=O)[C@H](C)NC)C(C)(C)C)C3)cc2)C[C@H]1C(=O)NC1c2ccccc2-c2ccccc21)C(C)(C)C` [Compound 47] was tested, and the EC50 was < 0.05 µM.
For `CN[C@@H](C)C(=O)N[C@H](C(=O)N1C[C@@H](NC(=O)c2ccc(C(=O)N[C@H]3C[C@@H](C(=O)NCc4cccc(-c5ccccc5)c4)N(C(=O)[C@@H](NC(=O)[C@H](C)NC)C(C)(C)C)C3)cc2)C[C@H]1C(=O)NCc1cccc(-c2ccccc2)c1)C(C)(C)C` [Compound 48], the EC50 was < 0.25 µM.
In the case of `CN[C@@H](C)C(=O)N[C@H](C(=O)N1C[C@@H](NC(=O)c2ccc(C(=O)N[C@H]3C[C@@H](C(=O)N[C@H](C)c4ccccc4)N(C(=O)[C@@H](NC(=O)[C@H](C)NC)C(C)(C)C)C3)cc2)C[C@H]1C(=O)N[C@H](C)c1ccccc1)C(C)(C)C` [Compound 49], the EC50 is reported as < 0.05 µM.
For `CN[C@@H](C)C(=O)N[C@H](C(=O)N1C[C@@H](NC(=O)c2ccc(C(=O)N[C@H]3C[C@@H](C(=O)N[C@@H](C)c4ccccc4)N(C(=O)[C@@H](NC(=O)[C@H](C)NC)C(C)(C)C)C3)cc2)C[C@H]1C(=O)N[C@@H](C)c1ccccc1)C(C)(C)C` [Compound 50], the EC50 was < 0.25 µM.
For `CN[C@@H](C)C(=O)N[C@H](C(=O)N1C[C@@H](NC(=O)c2ccc(C(=O)N[C@H]3C[C@@H](C(=O)NC(c4ccc(OC)cc4)c4ccc(OC)cc4)N(C(=O)[C@@H](NC(=O)[C@H](C)NC)C(C)(C)C)C3)cc2)C[C@H]1C(=O)NC(c1ccc(OC)cc1)c1ccc(OC)cc1)C(C)(C)C` [Compound 51], the EC50 was < 0.25 µM.
`CN[C@@H](C)C(=O)N[C@H](C(=O)N1C[C@@H](NC(=O)C2CCC(C(=O)N[C@H]3C[C@@H](C(=O)N[C@@H]4CCCc5ccccc54)N(C(=O)[C@@H](NC(=O)[C@H](C)NC)C(C)(C)C)C3)CC2)C[C@H]1C(=O)N[C@@H]1CCCc2ccccc21)C(C)(C)C` (stereo partly drawn) [Compound 52] was tested, and the EC50 was < 0.05 µM.
`CC[C@H](N)C(=O)N[C@H](C(=O)N1C[C@@H](NC(=O)c2ccc(C(=O)N[C@H]3C[C@@H](C(=O)N[C@@H]4CCCc5ccccc54)N(C(=O)[C@@H](NC(=O)[C@@H](N)CC)C(C)(C)C)C3)cc2)C[C@H]1C(=O)N[C@@H]1CCCc2ccccc21)C(C)(C)C` [Compound 53] was tested, and the EC50 was > 1 µM.
`CN[C@@H](C)C(=O)N[C@H](C(=O)N1C[C@@H](NC(=O)c2ccc(C(=O)N[C@H]3C[C@@H](C(=O)N[C@@H](CO)c4ccccc4)N(C(=O)[C@@H](NC(=O)[C@H](C)NC)C(C)(C)C)C3)cc2)C[C@H]1C(=O)N[C@@H](CO)c1ccccc1)C(C)(C)C` [Compound 54] was tested, and the EC50 was > 1 µM.
